Measured values reported in BigSolDB 2.1.

CSCC1CN(/N=C/c2ccc([N+](=O)[O-])o2)C(=O)O1 (configuration not stated)
solubility (mole fraction) (in DMF, 293.15 K): 0.012 | solubility (mole fraction) (in DMF, 298.15 K): 0.015 | solubility (mole fraction) (in DMF, 303.15 K): 0.0186 | solubility (mole fraction) (in DMF, 308.15 K): 0.0229 | solubility (mole fraction) (in DMF, 313.15 K): 0.0279 | solubility (mole fraction) (in DMF, 318.15 K): 0.0338 | solubility (mole fraction) (in DMF, 323.15 K): 0.0405 | solubility (mole fraction) (in DMF, 328.15 K): 0.0483 | solubility (mole fraction) (in DMF, 333.15 K): 0.0571 | solubility (mole fraction) (in DMSO, 293.15 K): 0.0172 | solubility (mole fraction) (in DMSO, 298.15 K): 0.021 | solubility (mole fraction) (in DMSO, 303.15 K): 0.0255 | solubility (mole fraction) (in DMSO, 308.15 K): 0.0307 | solubility (mole fraction) (in DMSO, 313.15 K): 0.0367 | solubility (mole fraction) (in DMSO, 318.15 K): 0.0435 | solubility (mole fraction) (in DMSO, 323.15 K): 0.0511 | solubility (mole fraction) (in DMSO, 328.15 K): 0.0596 | solubility (mole fraction) (in DMSO, 333.15 K): 0.069 | solubility (mole fraction) (in THF, 293.15 K): 0.000618 | solubility (mole fraction) (in THF, 298.15 K): 0.000801 | solubility (mole fraction) (in THF, 303.15 K): 0.00103 | solubility (mole fraction) (in THF, 308.15 K): 0.00131 | solubility (mole fraction) (in THF, 313.15 K): 0.00166 | solubility (mole fraction) (in THF, 318.15 K): 0.00209 | solubility (mole fraction) (in THF, 323.15 K): 0.0026 | solubility (mole fraction) (in THF, 328.15 K): 0.00322 | solubility (mole fraction) (in THF, 333.15 K): 0.00397 | solubility (mole fraction) (in acetic acid, 293.15 K): 0.000206 | solubility (mole fraction) (in acetic acid, 298.15 K): 0.000275 | solubility (mole fraction) (in acetic acid, 303.15 K): 0.000364 | solubility (mole fraction) (in acetic acid, 308.15 K): 0.000479 | solubility (mole fraction) (in acetic acid, 313.15 K): 0.000624 | solubility (mole fraction) (in acetic acid, 318.15 K): 0.000808 | solubility (mole fraction) (in acetic acid, 323.15 K): 0.00104 | solubility (mole fraction) (in acetic acid, 328.15 K): 0.00133 | solubility (mole fraction) (in acetic acid, 333.15 K): 0.00168 | solubility (mole fraction) (in acetone, 293.15 K): 0.00109 | solubility (mole fraction) (in acetone, 298.15 K): 0.0014 | solubility (mole fraction) (in acetone, 303.15 K): 0.00178 | solubility (mole fraction) (in acetone, 308.15 K): 0.00225 | solubility (mole fraction) (in acetone, 313.15 K): 0.00281 | solubility (mole fraction) (in acetone, 318.15 K): 0.0035 | solubility (mole fraction) (in acetone, 323.15 K): 0.00432 | solubility (mole fraction) (in acetone, 328.15 K): 0.0053 | solubility (mole fraction) (in acetonitrile, 293.15 K): 0.00235 | solubility (mole fraction) (in acetonitrile, 298.15 K): 0.00296 | solubility (mole fraction) (in acetonitrile, 303.15 K): 0.00369 | solubility (mole fraction) (in acetonitrile, 308.15 K): 0.00457 | solubility (mole fraction) (in acetonitrile, 313.15 K): 0.00562 | solubility (mole fraction) (in acetonitrile, 318.15 K): 0.00687 | solubility (mole fraction) (in acetonitrile, 323.15 K): 0.00835 | solubility (mole fraction) (in acetonitrile, 328.15 K): 0.0101 | solubility (mole fraction) (in acetonitrile, 333.15 K): 0.0121 | solubility (mole fraction) (in dichloromethane, 293.15 K): 0.00151 | solubility (mole fraction) (in dichloromethane, 298.15 K): 0.00192 | solubility (mole fraction) (in dichloromethane, 303.15 K): 0.00242 | solubility (mole fraction) (in dichloromethane, 308.15 K): 0.00303 | solubility (mole fraction) (in ethanol, 293.15 K): 1.98e-05 | solubility (mole fraction) (in ethanol, 298.15 K): 2.7e-05 | solubility (mole fraction) (in ethanol, 303.15 K): 3.65e-05 | solubility (mole fraction) (in ethanol, 308.15 K): 4.89e-05 | solubility (mole fraction) (in ethanol, 313.15 K): 6.49e-05 | solubility (mole fraction) (in ethanol, 318.15 K): 8.54e-05 | solubility (mole fraction) (in ethanol, 323.15 K): 0.000111 | solubility (mole fraction) (in ethanol, 328.15 K): 0.000144 | solubility (mole fraction) (in ethanol, 333.15 K): 0.000185 | solubility (mole fraction) (in ethyl acetate, 293.15 K): 0.000224 | solubility (mole fraction) (in ethyl acetate, 298.15 K): 0.000297 | solubility (mole fraction) (in ethyl acetate, 303.15 K): 0.000389 | solubility (mole fraction) (in ethyl acetate, 308.15 K): 0.000505 | solubility (mole fraction) (in ethyl acetate, 313.15 K): 0.000651 | solubility (mole fraction) (in ethyl acetate, 318.15 K): 0.000832 | solubility (mole fraction) (in ethyl acetate, 323.15 K): 0.00106 | solubility (mole fraction) (in ethyl acetate, 328.15 K): 0.00133 | solubility (mole fraction) (in ethyl acetate, 333.15 K): 0.00167 | solubility (mole fraction) (in isopropanol, 293.15 K): 1.45e-05 | solubility (mole fraction) (in isopropanol, 298.15 K): 2e-05 | solubility (mole fraction) (in isopropanol, 303.15 K): 2.73e-05 | solubility (mole fraction) (in isopropanol, 308.15 K): 3.69e-05 | solubility (mole fraction) (in isopropanol, 313.15 K): 4.94e-05 | solubility (mole fraction) (in isopropanol, 318.15 K): 6.56e-05 | solubility (mole fraction) (in isopropanol, 323.15 K): 8.63e-05 | solubility (mole fraction) (in isopropanol, 328.15 K): 0.000113 | solubility (mole fraction) (in isopropanol, 333.15 K): 0.000146 | solubility (mole fraction) (in methanol, 293.15 K): 3.84e-05 | solubility (mole fraction) (in methanol, 298.15 K): 5.31e-05 | solubility (mole fraction) (in methanol, 303.15 K): 7.26e-05 | solubility (mole fraction) (in methanol, 308.15 K): 9.85e-05 | solubility (mole fraction) (in methanol, 313.15 K): 0.000132 | solubility (mole fraction) (in methanol, 318.15 K): 0.000177 | solubility (mole fraction) (in methanol, 323.15 K): 0.000234 | solubility (mole fraction) (in methanol, 328.15 K): 0.000308 | solubility (mole fraction) (in methanol, 333.15 K): 0.000403 | solubility (mole fraction) (in water, 293.15 K): 1.53e-05 | solubility (mole fraction) (in water, 298.15 K): 2.06e-05 | solubility (mole fraction) (in water, 303.15 K): 2.75e-05 | solubility (mole fraction) (in water, 308.15 K): 3.63e-05 | solubility (mole fraction) (in water, 313.15 K): 4.74e-05 | solubility (mole fraction) (in water, 318.15 K): 6.16e-05 | solubility (mole fraction) (in water, 323.15 K): 7.93e-05 | solubility (mole fraction) (in water, 328.15 K): 0.000101 | solubility (mole fraction) (in water, 333.15 K): 0.000129
